Test results taken from patent publication US7164024B2, “Benzimidazolone derivatives” (Banyu Pharmaceutical Co., Ltd., priority 2001, dated 2007).

Experiments:
[1] = target: T1, muscarinic acetylcholine receptors of human m4 (Homo sapiens, UniProt P08173); assay: Test on inhibition of binding to muscarinic receptors (m4); conditions: for Ki: human m4 expressed in CHO cells, 0.2 nM [3H]-N-methylscopolamine, 5000 nM GTPγS, 120 minutes at room temperature; for Selectivity (times) m1/m4: ratio of Ki m1 to Ki m4; for Selectivity (times) m2/m4: ratio of Ki m2 to Ki m4; for Selectivity (times) m3/m4: ratio of Ki m3 to Ki m4; for Selectivity (times) m5/m4: ratio of Ki m5 to Ki m4
T1 construct: purchased Receptor Biology, Inc; host or cells: CHO cells
T1 sequence (P08173 1-479): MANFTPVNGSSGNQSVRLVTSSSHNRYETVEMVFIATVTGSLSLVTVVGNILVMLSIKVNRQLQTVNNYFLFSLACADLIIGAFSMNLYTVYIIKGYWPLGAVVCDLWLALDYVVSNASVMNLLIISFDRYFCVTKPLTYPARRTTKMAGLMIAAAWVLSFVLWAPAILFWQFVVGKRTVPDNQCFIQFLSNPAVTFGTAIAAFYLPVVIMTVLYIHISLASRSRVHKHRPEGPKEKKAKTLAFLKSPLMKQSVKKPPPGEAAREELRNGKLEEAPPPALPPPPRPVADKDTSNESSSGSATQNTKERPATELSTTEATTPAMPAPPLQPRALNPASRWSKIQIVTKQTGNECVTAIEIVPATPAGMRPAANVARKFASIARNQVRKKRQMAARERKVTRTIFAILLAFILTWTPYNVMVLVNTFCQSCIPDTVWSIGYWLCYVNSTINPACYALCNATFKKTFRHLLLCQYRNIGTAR
Protocol: (§1) The test was performed according to a modification of the method of Hargreaves, et al. (Br. J. Pharmacol. 107: 494–501, 1992). Namely, muscarinic acetylcholine receptors of human m1, m2, m3, m4 and m5 expressed in CHO cells (Receptor Biology, Inc.) were incubated with 0.2 nM [^3H]-N-methylscopolamine (82Ci/mmol, New England Nuclear, Inc.) and a test compound, either in 0.5 ml of 50 mM Tris-HCI, 10 mM MgCl2, 1 mM EDTA solution (pH 7.4) (human m1, m3 and m5 samples) or in 0.5 ml of 50 mM tris-HCl, 10 mM MgCl2, 1 mM EDTA, 5000 nM GTPγS solution (pH 7.4) (human m2 and m4 samples) for 120 minutes at room temperature (about 20–25° C.), followed by suction filtration over a glass filter (UniFilter plate-GF/C; Packard). Then the filter was washed four times with 1 ml of ice-cooled Tris-HCI buffer and dried at 50° C. for an hour. After adding a scintillator (Microscinti 0; Packard), the radioactivity of [^3H]-N-methylscopolamine binding to the filter was counted with a microplate scintillation counter (TopCount; Packard). Non-specific receptor binding of [^3H]-N-methylscopolamine was measured by adding 1 μM N-methylscopolamine. According to the method of Cheng and Prusoff (Biochem. Pharmacol. 22: 3099–3108, 1973), the binding affinity of each sample compound of the present invention for muscarinic receptors is expressed by inhibition constant (Ki) which is calculated from the concentration (IC50) of the sample compound which achieves 50% inhibition of binding of [^3H]-N-methylscopolamine, the labeled ligand. Smaller inhibition constant (Ki) represents stronger tendency to bind to muscarinic receptors, i.e., a higher binding inhibitory effect.

[2] = target: T2, muscarinic acetylcholine receptors of human m1 (Homo sapiens, UniProt P11229); assay: Test on inhibition of binding to muscarinic receptors (m1); conditions: human m1 expressed in CHO cells, 0.2 nM [3H]-N-methylscopolamine, 120 minutes at room temperature
T2 construct: purchased Receptor Biology, Inc; host or cells: CHO cells
T2 sequence (P11229 1-460): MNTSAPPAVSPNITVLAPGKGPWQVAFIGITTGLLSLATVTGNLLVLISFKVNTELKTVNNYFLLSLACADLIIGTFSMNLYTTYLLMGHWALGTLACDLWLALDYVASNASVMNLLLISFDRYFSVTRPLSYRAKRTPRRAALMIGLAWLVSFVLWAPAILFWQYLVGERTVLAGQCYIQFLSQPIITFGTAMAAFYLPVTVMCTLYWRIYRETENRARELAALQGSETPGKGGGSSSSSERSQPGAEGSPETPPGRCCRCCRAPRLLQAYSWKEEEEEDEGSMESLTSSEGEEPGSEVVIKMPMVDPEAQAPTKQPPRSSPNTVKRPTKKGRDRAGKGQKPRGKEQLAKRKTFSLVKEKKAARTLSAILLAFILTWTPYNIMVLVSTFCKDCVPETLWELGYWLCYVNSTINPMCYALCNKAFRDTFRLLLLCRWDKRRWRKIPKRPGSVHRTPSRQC
Protocol: as §1

[3] = target: T3, muscarinic acetylcholine receptors of human m2 (Homo sapiens, UniProt P08172); assay: Test on inhibition of binding to muscarinic receptors (m2); conditions: human m2 expressed in CHO cells, 0.2 nM [3H]-N-methylscopolamine, 5000 nM GTPγS, 120 minutes at room temperature
T3 construct: purchased Receptor Biology, Inc; host or cells: CHO cells
T3 sequence (P08172 1-466): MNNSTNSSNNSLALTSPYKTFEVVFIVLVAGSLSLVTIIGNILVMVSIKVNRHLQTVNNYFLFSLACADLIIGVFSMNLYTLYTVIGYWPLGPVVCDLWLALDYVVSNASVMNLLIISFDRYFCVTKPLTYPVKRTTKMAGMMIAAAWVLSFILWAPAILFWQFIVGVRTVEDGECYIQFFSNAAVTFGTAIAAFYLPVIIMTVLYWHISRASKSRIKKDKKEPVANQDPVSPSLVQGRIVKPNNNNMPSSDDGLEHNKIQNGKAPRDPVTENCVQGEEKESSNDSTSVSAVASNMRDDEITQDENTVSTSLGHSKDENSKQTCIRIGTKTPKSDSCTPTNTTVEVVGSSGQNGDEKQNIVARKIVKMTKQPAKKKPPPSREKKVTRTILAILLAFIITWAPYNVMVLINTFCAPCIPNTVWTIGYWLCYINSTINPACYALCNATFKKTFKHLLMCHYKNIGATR
Protocol: as §1

[4] = target: T4, muscarinic acetylcholine receptors of human m5 (Homo sapiens, UniProt P08912); assay: Test on inhibition of binding to muscarinic receptors (m5); conditions: human m5 expressed in CHO cells, 0.2 nM [3H]-N-methylscopolamine, 120 minutes at room temperature
T4 construct: purchased Receptor Biology, Inc; host or cells: CHO cells
T4 sequence (P08912 1-532): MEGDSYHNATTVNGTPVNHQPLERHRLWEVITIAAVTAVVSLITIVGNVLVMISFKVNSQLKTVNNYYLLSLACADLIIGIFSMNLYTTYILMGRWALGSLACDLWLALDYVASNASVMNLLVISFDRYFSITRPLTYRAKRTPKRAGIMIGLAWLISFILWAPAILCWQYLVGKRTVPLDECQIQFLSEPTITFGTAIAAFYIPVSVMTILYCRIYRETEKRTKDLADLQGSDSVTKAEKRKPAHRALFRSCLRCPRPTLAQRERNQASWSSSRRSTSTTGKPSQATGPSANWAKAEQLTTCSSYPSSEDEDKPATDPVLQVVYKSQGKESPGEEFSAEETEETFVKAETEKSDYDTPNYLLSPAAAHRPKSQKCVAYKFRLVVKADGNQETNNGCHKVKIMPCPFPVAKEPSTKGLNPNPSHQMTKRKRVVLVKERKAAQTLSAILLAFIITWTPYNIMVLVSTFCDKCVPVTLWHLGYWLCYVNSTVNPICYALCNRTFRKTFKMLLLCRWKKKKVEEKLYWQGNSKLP
Protocol: as §1

[5] = target: T5, muscarinic acetylcholine receptors of human m3 (Homo sapiens, UniProt P20309); assay: Test on inhibition of binding to muscarinic receptors (m3); conditions: human m3 expressed in CHO cells, 0.2 nM [3H]-N-methylscopolamine, 120 minutes at room temperature
T5 construct: purchased Receptor Biology, Inc; host or cells: CHO cells
Protocol: as §1

T5 sequence (P20309 whole entry): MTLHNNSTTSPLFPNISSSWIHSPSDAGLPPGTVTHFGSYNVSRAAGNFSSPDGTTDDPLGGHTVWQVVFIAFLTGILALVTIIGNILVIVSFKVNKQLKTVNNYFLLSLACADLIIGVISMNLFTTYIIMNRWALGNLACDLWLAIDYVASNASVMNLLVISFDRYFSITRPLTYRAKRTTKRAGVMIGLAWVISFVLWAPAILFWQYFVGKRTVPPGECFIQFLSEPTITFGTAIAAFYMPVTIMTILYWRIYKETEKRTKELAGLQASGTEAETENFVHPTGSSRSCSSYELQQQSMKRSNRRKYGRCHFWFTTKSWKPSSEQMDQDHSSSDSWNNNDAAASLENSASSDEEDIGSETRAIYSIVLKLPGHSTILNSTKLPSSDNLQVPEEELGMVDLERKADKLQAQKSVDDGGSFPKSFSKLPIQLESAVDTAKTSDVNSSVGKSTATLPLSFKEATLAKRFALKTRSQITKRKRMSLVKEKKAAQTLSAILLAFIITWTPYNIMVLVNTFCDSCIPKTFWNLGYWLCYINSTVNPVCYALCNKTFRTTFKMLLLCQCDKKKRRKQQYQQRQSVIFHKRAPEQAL

| Ki [1] [nM] | Selectivity (times) m1/m4 [1] [times] | Selectivity (times) m2/m4 [1] [times] | Selectivity (times) m3/m4 [1] [times] | Selectivity (times) m5/m4 [1] [times] | Ki [2] [nM] | Ki [3] [nM] | Ki [4] [nM] | Ki [5] [nM] | SMILES |
| --- | --- | --- | --- | --- | --- | --- | --- | --- | --- |
| 1.7 | 15 | 19 | 1000 | 270 | 25 | 31 | 450 | 1700 | O=C(c1cccnc1)N1CCCC(CCN2CCC(n3c(=O)[nH]c4ccccc43)CC2)CC1 (single isomer, unassigned) [Example 9, (S*)-1-[1-[2-[1-(3-pyridylcarbonyl)perhydroazepin-4-yl]ethyl]piperidin-4-yl]-1,3-dihydro-2H-benzimidazol-2-one] |
| 4.5 | 6.1 | 16 | 1600 | 57 | 28 | 73 | 260 | 7400 | O=C(c1cnccn1)N1CCC(CCN2CCC(n3c(=O)[nH]c4ccccc43)CC2)CC1 [Example 4, 1-[1-[2-[1-(Pyrazinylcarbonyl)piperidin-4-yl]ethyl]piperidin-4-yl]-1,3-dihydro-2H-benzimidazol-2-one] |
| 2.3 | 9.7 | 11 | 2000 | 99 | 22 | 24 | 220 | 4500 | CC(CN1CCC(n2c(=O)[nH]c3ccccc32)CC1)C1CCN(C(=O)c2cccnc2)CC1 (stereo not drawn) [Example 12, 1-[1-[2-[1-(3-Pyridylcarbonyl)piperidin-4-yl]propyl]piperidin-4-yl]-1,3-dihydro-2H-benzimidazol-2-one] |
